{"source": "patent US8859559B2", "about": "“Substituted pyrazines and their use in the treatment of disease” (Boehringer Ingelheim International GmbH, priority 2011, dated 2014)", "data": [{"target": "T1, ENaC (Epithelial Sodium Channel) (Mus musculus, UniProt Q61180+Q9WU38+Q9WU39)", "T1 construct": "Mouse kidney M-1 cells were cultivated in DMEM; endogenous in cells; host or cells: Mouse kidney M-1 cells (dexamethasone-treated, on transwell filters)", "T1 sequence (Q61180 1-699)": "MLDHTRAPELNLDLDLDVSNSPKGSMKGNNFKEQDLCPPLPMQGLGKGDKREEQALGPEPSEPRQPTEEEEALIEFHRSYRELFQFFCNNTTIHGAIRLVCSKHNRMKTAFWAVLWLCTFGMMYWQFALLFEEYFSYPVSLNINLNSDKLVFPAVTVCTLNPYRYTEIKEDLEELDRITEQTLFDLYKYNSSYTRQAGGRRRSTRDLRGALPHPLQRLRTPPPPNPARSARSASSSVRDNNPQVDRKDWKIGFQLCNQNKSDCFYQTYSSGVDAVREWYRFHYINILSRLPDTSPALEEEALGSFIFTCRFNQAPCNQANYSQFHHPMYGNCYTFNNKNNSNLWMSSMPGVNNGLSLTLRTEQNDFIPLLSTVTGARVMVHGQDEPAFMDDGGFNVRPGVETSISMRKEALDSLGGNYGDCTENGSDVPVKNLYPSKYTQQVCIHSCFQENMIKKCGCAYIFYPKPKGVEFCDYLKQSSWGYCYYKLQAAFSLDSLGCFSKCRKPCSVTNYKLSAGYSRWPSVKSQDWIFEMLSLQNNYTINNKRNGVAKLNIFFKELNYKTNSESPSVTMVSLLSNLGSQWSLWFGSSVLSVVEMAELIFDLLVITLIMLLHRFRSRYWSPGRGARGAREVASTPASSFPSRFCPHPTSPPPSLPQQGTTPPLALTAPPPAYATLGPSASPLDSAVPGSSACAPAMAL", "T1 sequence (Q9WU38 1-638)": "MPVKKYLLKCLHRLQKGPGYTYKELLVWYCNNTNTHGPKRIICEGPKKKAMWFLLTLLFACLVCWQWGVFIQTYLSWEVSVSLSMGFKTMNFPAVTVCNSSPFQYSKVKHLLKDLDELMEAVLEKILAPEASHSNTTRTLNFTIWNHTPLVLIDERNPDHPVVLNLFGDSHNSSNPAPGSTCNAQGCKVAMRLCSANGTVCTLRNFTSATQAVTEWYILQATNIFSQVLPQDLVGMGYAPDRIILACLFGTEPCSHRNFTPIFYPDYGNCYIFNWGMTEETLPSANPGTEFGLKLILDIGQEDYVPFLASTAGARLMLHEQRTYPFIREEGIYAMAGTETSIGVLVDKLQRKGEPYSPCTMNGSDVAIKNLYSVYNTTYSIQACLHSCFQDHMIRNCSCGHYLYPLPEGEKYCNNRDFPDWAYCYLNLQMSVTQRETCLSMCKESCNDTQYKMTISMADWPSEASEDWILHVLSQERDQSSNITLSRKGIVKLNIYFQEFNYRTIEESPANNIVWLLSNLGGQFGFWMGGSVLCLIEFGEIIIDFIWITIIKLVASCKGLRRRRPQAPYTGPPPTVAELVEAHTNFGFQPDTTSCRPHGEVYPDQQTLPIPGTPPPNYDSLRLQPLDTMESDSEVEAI", "T1 sequence (Q9WU39 1-655)": "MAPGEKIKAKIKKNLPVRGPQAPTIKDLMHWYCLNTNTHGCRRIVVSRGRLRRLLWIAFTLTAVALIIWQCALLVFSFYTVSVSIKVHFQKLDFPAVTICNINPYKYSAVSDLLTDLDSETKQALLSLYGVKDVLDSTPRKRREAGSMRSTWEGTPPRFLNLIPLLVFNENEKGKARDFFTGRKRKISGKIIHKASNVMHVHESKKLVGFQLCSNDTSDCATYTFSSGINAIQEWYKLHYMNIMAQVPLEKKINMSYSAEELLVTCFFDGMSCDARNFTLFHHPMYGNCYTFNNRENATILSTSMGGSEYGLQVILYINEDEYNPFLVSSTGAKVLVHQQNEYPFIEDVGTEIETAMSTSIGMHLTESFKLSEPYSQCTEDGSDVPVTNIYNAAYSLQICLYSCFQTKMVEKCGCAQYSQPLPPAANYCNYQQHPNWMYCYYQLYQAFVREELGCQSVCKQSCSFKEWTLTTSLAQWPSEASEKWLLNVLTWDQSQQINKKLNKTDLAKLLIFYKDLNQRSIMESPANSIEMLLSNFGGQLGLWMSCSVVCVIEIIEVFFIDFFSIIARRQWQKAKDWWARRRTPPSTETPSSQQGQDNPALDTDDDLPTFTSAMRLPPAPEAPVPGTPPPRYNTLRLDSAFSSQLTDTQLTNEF", "assay": "Ussing chamber: inhibition of amiloride sensitive short circuit current (I_sc) in M-1 cells", "format": "cell-based", "settings": "mouse kidney M-1 cells", "protocol": "Mouse kidney M-1 cells were cultivated in DMEM containing 5% FCS and 5 μM dexamethasone for 10 to 12 days on polyester transwell filters. Filters were inserted into a teflon-coated well-plate which fit into the in-house ussing chamber system. Prior to measurement the medium of M-1 cells was replaced with Caco-2 transport buffer (Invitrogen, Germany). During measurements, the Ussing chamber temperature was kept at 37° C. Short circuit currents (I_sc) were measured in the voltage-clamp mode using an in-house built amplifier (Boehringer Ingelheim, Biberach) with the software package Lab View for data acquisition and analysis. The transepithelial electrical resistance (TEER) was determined by the application of voltage steps of ±5 mV every 5 sec. Compounds were administered at a final concentration of 3 μM or at increasing concentrations (1-3-10 μM) to the apical solution. At the end of each experiment the amiloride sensitive I_SC was measured by adding 3 μM amiloride to the apical compartment. Results are expressed as inhibition in percent of the amiloride effect or as IC50. With the example compounds given above, the following IC50 values were determined in the Ussing Chamber assay: […]", "units": {"IC50": "nM"}, "values": [{"smiles": "NC(=NC(=O)c1nc(Cl)c(N)nc1N)NC1CC2CCC(C1)N2Cc1ccccc1", "note": "(single isomer, unassigned) [Example 1.27]", "IC50": 49}, {"smiles": "NC(=NC(=O)c1nc(Cl)c(N)nc1N)NC1CC2CCC(C1)N2Cc1ccccc1", "note": "(single isomer, unassigned) [Example 1.28]", "IC50": 16}, {"smiles": "COC(=O)c1ccc(CN2CCC(N/C(N)=N/C(=O)c3nc(Cl)c(N)nc3N)CC2)c(OC)c1", "note": "[Example 1.1]", "IC50": 5}, {"smiles": "N/C(=N\\C(=O)c1nc(Cl)c(N)nc1N)NC1CCN(Cc2ccc(CO)cc2)CC1", "note": "[Example 1.2]", "IC50": 10}, {"smiles": "[N-]=[N+]=NCCc1ccc(CN2CCC(NC(N)=NC(=O)c3nc(Cl)c(N)nc3N)CC2)cc1", "note": "[Example 1.3]", "IC50": 4}, {"smiles": "C#CCOc1ccc(CN2CCC(NC(N)=NC(=O)c3nc(Cl)c(N)nc3N)CC2)cc1", "note": "[Example 1.4]", "IC50": 4}, {"smiles": "COC(=O)c1ccc(=O)n(Cc2ccc(CN3CCC(NC(N)=NC(=O)c4nc(Cl)c(N)nc4N)CC3)cc2)c1", "note": "[Example 1.5]", "IC50": 7}, {"smiles": "COC(=O)Cc1cccc(CN2CCC(NC(N)=NC(=O)c3nc(Cl)c(N)nc3N)CC2)c1", "note": "[Example 1.6]", "IC50": 4}, {"smiles": "[N-]=[N+]=NCCOCCOCCOCCNC(=O)c1ccc(CN2CCC(NC(N)=NC(=O)c3nc(Cl)c(N)nc3N)CC2)cc1", "note": "[Example 1.7]", "IC50": 4}, {"smiles": "CCOP(=O)(Cc1ccc(CN2CCC(NC(N)=NC(=O)c3nc(Cl)c(N)nc3N)CC2)cc1)OCC", "note": "[Example 1.8]", "IC50": 10}, {"smiles": "C#CCCCCOC(=O)c1ccc(CN2CCC(NC(N)=NC(=O)c3nc(Cl)c(N)nc3N)CC2)cc1", "note": "[Example 1.9]", "IC50": 8}, {"smiles": "[N-]=[N+]=Nc1ccc(CN2CCC(N/C(N)=N/C(=O)c3nc(Cl)c(N)nc3N)CC2)cc1", "note": "[Example 1.10]", "IC50": 6}, {"smiles": "COC(=O)c1ccc(CN2CCC(N/C(N)=N/C(=O)c3nc(Cl)c(N)nc3N)CC2)c(Cl)c1", "note": "[Example 1.12]", "IC50": 4}, {"smiles": "CCOP(=O)(OCC)c1ccc(CN2CCC(NC(N)=NC(=O)c3nc(Cl)c(N)nc3N)CC2)cc1", "note": "[Example 1.13]", "IC50": 5}, {"smiles": "CN(C)CCNC(=O)c1ccc(CN2CCC(NC(N)=NC(=O)c3nc(Cl)c(N)nc3N)CC2)cc1", "note": "[Example 1.14]", "IC50": 1}, {"smiles": "N/C(=N\\C(=O)c1nc(Cl)c(N)nc1N)NC1CCN(Cc2ccc(B(O)O)cc2)CC1", "note": "[Example 1.15]", "IC50": 7}, {"smiles": "CCOC(=O)c1ccc(=O)n(-c2ccc(CN3CCC(NC(N)=NC(=O)c4nc(Cl)c(N)nc4N)CC3)cc2)c1", "note": "[Example 1.16]", "IC50": 17}, {"smiles": "COC(=O)c1ccc(CN2CCC(C)(NC(N)=NC(=O)c3nc(Cl)c(N)nc3N)CC2)cc1", "note": "[Example 1.17]", "IC50": 66}, {"smiles": "[N-]=[N+]=NCCOCCOCCOCCOc1ccc(CN2CCC(NC(N)=NC(=O)c3nc(Cl)c(N)nc3N)CC2)cc1", "note": "[Example 1.18]", "IC50": 7}, {"smiles": "COc1ccc(CCN2CCC(NC(N)=NC(=O)c3nc(Cl)c(N)nc3N)CC2)cc1", "note": "[Example 1.19]", "IC50": 12}, {"smiles": "COc1ccc(C(=O)CN2CCC(NC(N)=NC(=O)c3nc(Cl)c(N)nc3N)CC2)cc1", "note": "[Example 1.20]", "IC50": 11}, {"smiles": "N#Cc1ccc(OCCN2CCC(NC(N)=NC(=O)c3nc(Cl)c(N)nc3N)CC2)cc1", "note": "[Example 1.21]", "IC50": 11}, {"smiles": "NC(=NC(=O)c1nc(Cl)c(N)nc1N)NC1CCCN(Cc2ccccc2)CC1", "note": "(stereo not shown) [Example 1.22]", "IC50": 14}, {"smiles": "NC(=NC(=O)c1nc(Cl)c(N)nc1N)NC1CCN(Cc2ccc(C(=O)NCCCn3ccnc3)cc2)CC1", "note": "[Example 1.23]", "IC50": 2}, {"smiles": "NC(=NC(=O)c1nc(Cl)c(N)nc1N)NC1CCN(Cc2ccc(C(=O)NCCc3cccnc3)cc2)CC1", "note": "[Example 1.24]", "IC50": 3}, {"smiles": "N/C(=N\\C(=O)c1nc(Cl)c(N)nc1N)NC1CCN(Cc2ccccc2)CC1", "note": "[Example 1.25]", "IC50": 6}, {"smiles": "NC(=NC(=O)c1nc(Cl)c(N)nc1N)NC1CCN(Cc2ccccc2)C1", "note": "(stereo not shown) [Example 1.26]", "IC50": 20}, {"smiles": "COC(=O)c1ccc(CN2CCC(N/C(N)=N/C(=O)c3nc(Cl)c(N)nc3N)CC2)cc1", "note": "[Example 1.29]", "IC50": 2}, {"smiles": "N/C(=N\\C(=O)c1nc(Cl)c(N)nc1N)NC1CCN(Cc2ccc(O)cc2)CC1", "note": "[Example 1.31]", "IC50": 7}, {"smiles": "C#Cc1cccc(CN2CCC(NC(N)=NC(=O)c3nc(Cl)c(N)nc3N)CC2)c1", "note": "[Example 1.32]", "IC50": 7}, {"smiles": "CN(C)CCCOc1ccc(CN2CCC(NC(N)=NC(=O)c3nc(Cl)c(N)nc3N)CC2)cc1", "note": "[Example 1.34]", "IC50": 5}, {"smiles": "COC(=O)c1cccc(CN2CCC(NC(N)=NC(=O)c3nc(Cl)c(N)nc3N)CC2)c1", "note": "[Example 1.36]", "IC50": 3}, {"smiles": "COC(=O)C(c1ccccc1)N1CCC(NC(N)=NC(=O)c2nc(Cl)c(N)nc2N)CC1", "note": "(stereo not shown) [Example 1.37]", "IC50": 17}, {"smiles": "COC(=O)Cc1ccc(CN2CCC(NC(N)=NC(=O)c3nc(Cl)c(N)nc3N)CC2)cc1", "note": "[Example 1.38]", "IC50": 8}, {"smiles": "NC(=NC(=O)c1nc(Cl)c(N)nc1N)NC1CCN(Cc2ccc(C(=O)NCCOCCOCCO)cc2)CC1", "note": "[Example 1.39]", "IC50": 6}, {"smiles": "N#Cc1ccc(CN2CCC(N/C(N)=N/C(=O)c3nc(Cl)c(N)nc3N)CC2)cc1", "note": "[Example 1.40]", "IC50": 2}, {"smiles": "CC(=O)Oc1ccc(CN2CCC(N/C(N)=N/C(=O)c3nc(Cl)c(N)nc3N)CC2)cc1", "note": "[Example 1.41]", "IC50": 7}, {"smiles": "COC(=O)COc1ccc(CN2CC[C@H](NC(N)=NC(=O)c3nc(Cl)c(N)nc3N)C2)cc1", "note": "[Example 1.42]", "IC50": 59}, {"smiles": "COC(=O)c1ccccc1CN1CCC(NC(N)=NC(=O)c2nc(Cl)c(N)nc2N)CC1", "note": "[Example 1.43]", "IC50": 15}, {"smiles": "COC(=O)COc1cccc(CN2CCC(NC(N)=NC(=O)c3nc(Cl)c(N)nc3N)CC2)c1", "note": "[Example 1.44]", "IC50": 20}, {"smiles": "COC(=O)CCc1ccc(CN2CCC(NC(N)=NC(=O)c3nc(Cl)c(N)nc3N)CC2)cc1", "note": "[Example 1.45]", "IC50": 10}, {"smiles": "COC(=O)COc1ccc(CN2CC[C@@H](NC(N)=NC(=O)c3nc(Cl)c(N)nc3N)C2)cc1", "note": "[Example 1.46]", "IC50": 73}, {"smiles": "NCCOCCOCCNC(=O)c1ccc(CN2CCC(NC(N)=NC(=O)c3nc(Cl)c(N)nc3N)CC2)cc1", "note": "[Example 1.47]", "IC50": 3}, {"smiles": "COCCOc1ccc(C(=O)NCCOCCOCCNC(=O)c2ccc(CN3CCC(NC(N)=NC(=O)c4nc(Cl)c(N)nc4N)CC3)cc2)cc1", "note": "[Example 1.49]", "IC50": 6}, {"smiles": "C#Cc1ccc(CN2CCC(NC(N)=NC(=O)c3nc(Cl)c(N)nc3N)CC2)cc1", "note": "[Example 1.50]", "IC50": 5}, {"smiles": "N/C(=N\\C(=O)c1nc(Cl)c(N)nc1N)NC1CCN(Cc2ccc(C(=O)O)cc2)CC1", "note": "[Example 1.51]", "IC50": 23}]}]}
